Reference: article PMC3514216, “SRC Homology 2 Domain Binding Sites in Insulin, IGF-1 and FGF receptor mediated signaling networks reveal an extensive potential interactome” (Cell Communication and Signaling : CCS, 2012)

Key:
Type in all cases: binding
Grb2 SH2 domain = Grb2 SH2 domain (Homo sapiens, UniProt P62993); assay: SPOT peptide array; details: GST-SH2 0.25 μM, membrane-bound peptide, 1 mM DTT, LiCor read-out
Excerpt: (§1) The use of addressable peptide arrays is a reproducible and semi-quantitative approach that has been extensively validated for studying protein interactions with peptide ligands. To investigate connections between SH2 domain proteins and their putative phosphorylated docking sites on cell surface receptors, we developed addressable arrays consisting of 192 phosphotyrosine peptides. This peptide set was assembled using 71 phosphotyrosine peptide motifs corresponding to all of the cytoplasmic tyrosine residues within the FGF receptors (FGFR1-4), insulin receptor (InsR) and IGF-1 receptor (IGF-1R) (Figure 1A). Activation of these receptors results in the phosphorylation of associated scaffold proteins, and so 75 phosphotyrosine peptides corresponding to a comprehensive list of tyrosine residues within insulin receptor substrates (IRS-1 and IRS-2) and fibroblast receptor substrates (FRS-2 and FRS-3) were included. In addition, 33 phosphotyrosine peptides were incorporated from the downstream signaling proteins PLC-γ1, p130Cas (BCAR1) and p62DOK1. […] These control peptides provide a reference and establish the empirical cut-off for designated binding interactions (Table 1). No discrimination was made against peptides on the basis of reported phosphorylation state in order to examine a diverse and unbiased set of motifs. The resulting set of 192 phosphotyrosine peptides and their corresponding position in the proteins of origin is noted in Additional file 1: Table S1. Addressable arrays were synthesized as membrane-bound 11-mer peptides using the SPOT synthesis technique. While the majority of SH2 domains recognize residues C-terminal to the phosphotyrosine in their cognate peptide ligands, additional contacts between SH2 domains and residues N-terminal to the phosphotyrosine are observed for the SH2 domain of Sh2d1a (SAP) and cannot be ruled out in other cases. Peptides were synthesized with six flanking residues C-terminal to the phosphotyrosine and four residues N-terminal to the phosphotyrosine.
(§2) SH2 domains were arrayed as GST fusion proteins and detected using anti-GST primary antibodies and near-infrared labeled secondary antibodies. In an effort to present a dataset with minimal false positives, we chose an empirical cutoff based on the array average across all peptide spots to classify interactions (Figure 1A). In cases where the intensity of the signal for an individual SH2-domain binding event exceeded the mean intensity of all the peptides on the membrane by three-fold were scored as “array positives” [22]. Non-binding was judged in cases where the intensity of a spot was less than the mean intensity of all spots on the membrane and these were scored as “array negatives”. Peptides with signal intensities between 1X and 3X mean were scored as “indeterminate” and ascribed as neither array positive binding interactions nor array-negative non-binders. […] This signature may be indicative of promiscuity differences between phosphopeptides or there may be a subset of peptides which interact in a nonspecific fashion with either the GST fusion tag or one of the antibodies used for detection, resulting in false positives. Consistent with our goal of reducing the errors associated with identifying false-positives, we probed three separate arrays with three separate preps of the GST fusion tag alone. Potentially non-specificly interacting peptides (so-called ‘sticky’ peptides) were identified as any that bound to GST with above mean intensity in two out of three separate trials. This approach identifies any peptides which interact with GST or either of the recognition antibodies, a known confounding factor for downstream analysis. This conservative approach allows us to score many significant peptides as ‘binders’ which may have been indeterminate before when incorporating the ‘sticky’ peptides into the array average. […]

panel of 50 SH2 domains = assay: SPOT peptide array probed with each of 50 GST-SH2 domains; details: SH2 domains with intensity >3X array mean; GST-SH2 0.25 μM, 1 mM DTT
Procedure, shortened: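 Membrane SPOT arrays of 192 phosphotyrosine 11-mer peptides (four residues N-terminal, six C-terminal to pTyr) probed with GST-SH2 fusions, detected by anti-GST plus near-infrared secondary antibody. Spots >3-fold array mean scored positive, below mean negative, 1–3× indeterminate; peptides binding GST alone above mean in two of three trials flagged as sticky.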

Ptpn11_N SH2 domain = target: T1, Ptpn11_N SH2 domain (Homo sapiens, UniProt Q06124); assay: SPOT peptide array; details: GST-SH2 0.25 μM; for Array positive: membrane-bound peptide, 1 mM DTT, LiCor read-out; for Peptide array intensity (X mean): spot intensity as factor of array mean
T1 sequence (Q06124 6-102 limits assumed): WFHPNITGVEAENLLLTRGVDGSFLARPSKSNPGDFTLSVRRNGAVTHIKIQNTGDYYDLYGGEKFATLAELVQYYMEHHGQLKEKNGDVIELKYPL
Excerpt: as §1, §2

Crk SH2 domain = Crk SH2 domain (Homo sapiens, UniProt P46108); assay: SPOT peptide array; details: GST-SH2 0.25 μM, membrane-bound peptide, 1 mM DTT, LiCor read-out
Excerpt: as §1, §2

Nck1 SH2 domain = Nck1 SH2 domain (Homo sapiens, UniProt P16333); assay: SPOT peptide array; details: GST-SH2 0.25 μM; for Array positive: membrane-bound peptide, 1 mM DTT, LiCor read-out
Excerpt: as §1, §2

Plcγ-C SH2 domain = assay: SPOT peptide array; details: GST-SH2 0.25 μM; for Array positive: membrane-bound peptide, 1 mM DTT, LiCor read-out
Excerpt: as §1, §2

[1] = spot intensity as factor of array mean

Sequence of Crk SH2 domain (P46108 13-118 limits assumed): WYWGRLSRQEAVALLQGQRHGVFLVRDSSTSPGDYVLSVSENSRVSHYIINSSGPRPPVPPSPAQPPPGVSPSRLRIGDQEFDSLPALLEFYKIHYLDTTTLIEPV
Sequence of Grb2 SH2 domain (P62993 60-152 limits assumed): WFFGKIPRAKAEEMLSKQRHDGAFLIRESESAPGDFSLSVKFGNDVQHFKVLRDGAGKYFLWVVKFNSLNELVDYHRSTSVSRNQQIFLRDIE

Substance | Array positive (Grb2 SH2 domain) | Other SH2 domains bound (additional array-positive SH2 domains) (panel of 50 SH2 domains) | also measured
ALLNpYENLPSL [11-mer phosphotyrosine peptide, FRS2 (Y349)] | Yes (Array-positive binding was ascribed to interactions with intensities greater than three times the array mean) | Abl1, Abl2, Gads, Grap, Grb2, Grb7, PI3K1_C, Sh2d2a, Sh3bp2 | –
APVSpYADMRTG [11-mer phosphotyrosine peptide, IRS-1 (Y1012)] | – | – | Array positive (Ptpn11_N SH2 domain): No (Peptide spots with average intensity values between 1X-3X the array mean were defined as ‘indeterminate’. Those with intensities below 1X mean were defined as array negative); Peptide array intensity (X mean) (Ptpn11_N SH2 domain): 0.59 X Mean
ATDDpYAVPPPR [11-mer phosphotyrosine peptide, p62DOK1 (Y409), similar to p130Cas (Y410)] | – | Crkl, Hck | Array positive (Crk SH2 domain): Yes (Array-positive binding was ascribed to interactions with intensities greater than three times the array mean)
DDPSpYVNVQNL [11-mer phosphotyrosine control peptide, ShcA (Y426), reference compound] | Yes (Array-positive binding was ascribed to interactions with intensities greater than three times the array mean) | Gads, Grap | –
DPNGpYMMMSPS [11-mer phosphotyrosine peptide, IRS-1 (Y662)] | – | – | Array positive (Ptpn11_N SH2 domain): No (Peptide spots with average intensity values between 1X-3X the array mean were defined as ‘indeterminate’. Those with intensities below 1X mean were defined as array negative); Peptide array intensity (X mean) (Ptpn11_N SH2 domain): 0.54 X Mean
EDLSpYGDVPPG [11-mer phosphotyrosine peptide, IRS-1 (Y151)] | – | 1.76X Mean Abl1, Blk, Fyn, Lck, Lyn, Sh2d1b, Shc1, Ship2, Slnk, Yes | Array positive (Nck1 SH2 domain): No (Peptide spots with average intensity values between 1X-3X the array mean were defined as ‘indeterminate’. Those with intensities below 1X mean were defined as array negative); Peptide array intensity (X mean) (Nck1 SH2 domain; [1]): 1.76 X Mean
ELSNpYICMGGK [11-mer phosphotyrosine peptide, IRS-1 (Y465)] | – | – | Array positive (Ptpn11_N SH2 domain): No (Peptide spots with average intensity values between 1X-3X the array mean were defined as ‘indeterminate’. Those with intensities below 1X mean were defined as array negative); Peptide array intensity (X mean) (Ptpn11_N SH2 domain): 0.9 X Mean
EQDEYDIPRHL [11-mer peptide, p130Cas (Y234)] | – | Brk, Crkl, Fyn, Lck, Lyn, Shc1, Yes | Array positive (Crk SH2 domain): Yes (Array-positive binding was ascribed to interactions with intensities greater than three times the array mean)
GGEFpYGYMTMD [11-mer phosphotyrosine peptide, IRS-2 (Y540)] | – | Dapp1, Grb7 | Array positive (Plcγ-C SH2 domain): Yes (Array-positive binding was ascribed to interactions with intensities greater than three times the array mean)
NKLVpYENINGL [11-mer phosphotyrosine peptide, FRS2 (Y306)] | Yes (Array-positive binding was ascribed to interactions with intensities greater than three times the array mean) | Grap, Grb7, Sh2d2a | –
NPGFpYVEANPM [11-mer phosphotyrosine peptide, PLCγ1 (Y783)] | – | PLCγ_C at 1.03X mean; Zap70_N | Array positive (Plcγ-C SH2 domain): No (Peptide spots with average intensity values between 1X-3X the array mean were defined as ‘indeterminate’. Those with intensities below 1X mean were defined as array negative); Peptide array intensity (X mean) (Plcγ-C SH2 domain; [1]): 1.03 X Mean
PMHNpYVNTENV [11-mer phosphotyrosine peptide, FRS2 (Y392)] | Yes (Array-positive binding was ascribed to interactions with intensities greater than three times the array mean) | Gads, Grap | –
PNGDpYLNVSPS [11-mer phosphotyrosine peptide, IRS-2 (Y766)] | Yes (Array-positive binding was ascribed to interactions with intensities greater than three times the array mean) | Sh2d1b, Vav1 | –
PQDIYDVPPVR [11-mer peptide, P130Cas (Y249)] | – | Crkl, Zap70_N | Array positive (Crk SH2 domain): Yes (Array-positive binding was ascribed to interactions with intensities greater than three times the array mean)
QVHTpYVNTTGV [11-mer phosphotyrosine peptide, FRS2 (Y196)] | Yes (Array-positive binding was ascribed to interactions with intensities greater than three times the array mean) | Abl2, Gads, Grap, PI3K1_C | –
RQLNpYIQVDLE [11-mer phosphotyrosine peptide, FRS2 (Y436)] | – | Itk, Mist, PLCγ_C, Rasa1_N, Shb, Shd, She, Syk_C | Array positive (Ptpn11_N SH2 domain): Yes (Array-positive binding was ascribed to interactions with intensities greater than three times the array mean)
SDDDpYDDVDIP [11-mer phosphotyrosine control peptide, HPK1 (Y379), reference compound] | – | Fer, SLNK (similar to BLNK and SLP76) | Array positive (Nck1 SH2 domain): Yes (Array-positive binding was ascribed to interactions with intensities greater than three times the array mean)
SIEEpYTEMMPA [11-mer phosphotyrosine peptide, IRS-1 (Y551)] | – | – | Array positive (Ptpn11_N SH2 domain): No (Peptide spots with average intensity values between 1X-3X the array mean were defined as ‘indeterminate’. Those with intensities below 1X mean were defined as array negative); Peptide array intensity (X mean) (Ptpn11_N SH2 domain): 0.56 X Mean
TRDIpYETDpYpYR [triply phosphorylated peptide, InsR (Y1185,89,90)] | – | Crk, Crkl, Fer, Grb7, PI3K1_C | Array positive (Plcγ-C SH2 domain): Yes (Array-positive binding was ascribed to interactions with intensities greater than three times the array mean)
